Assay: Comparative example: solubility of BMDBM in 1:1 (w/w) mixture of C12-15 alkyl benzoate and a polymeric or solid UV-filter
Format: physicochemical
From the text: Where necessary the mixture was centrifuged in order to obtain a clear supernatant.

- Solubility of BMDBM in C12-15 alkyl benzoate/UV-filter 1:1 (200 mg BMDBM with 1000 mg of 1:1 (w/w) mixture, supernatant by HPLC after 1 month at RT): 3 wt.-%
- Δ solubility of BMDBM related to cosmetic solvent (C12-15 alkyl benzoate/UV-filter 1:1): −4 wt.-%
- Δ solubility of BMDBM (C12-15 alkyl benzoate/UV-filter 1:1 versus C12-15 alkyl benzoate): −11 wt.-%
SMILES: CCCCC(CC)COc1ccc(-c2nc(-c3ccc(OC)cc3)nc(-c3ccc(OCC(CC)CCCC)cc3O)n2)c(O)c1 (stereo not drawn) [BEMT, bis-ethylhexyloxyphenol methoxyphenyl triazine]

Reference: patent US20120282201A1, “NOVEL COMPOUNDS” (priority 2009, published 2012)
